Read-outs that look alike come from different tables or passages of the source.
Tests used:
[1] = Plasma protein binding by equilibrium dialysis, rat plasma; assay type: in vitro ADME; settings: 0.5–2 μg/mL
Method: The plasma protein binding of buagafuran (0.5–2 μg/mL) was investigated by equilibrium dialysis. Aliquots (0.5 mL) of plasma were dialyzed against 10 mL phosphate buffered saline containing a ^3H-buagafuran tracer over a membrane with an 8,000- to 12,000-dalton molecular weight cutoff. Dialysis experiment was performed for 60 h at 4 °C. After the dialysis period, 100 μL of the PBS fraction (containing unbound buagafuran) and 100 μL of the plasma fraction (containing both bound and unbound drug) was taken for liquid scintillation counting. The ratio of buagafuran concentration in buffer to that in plasma was applied to calculate the unbound fraction (Fu).

[2] = Clearance prediction from incubation with rat liver microsomes; assay type: in vitro ADME
Method: Drug disappearance t1/2 value measurements in rat and human microsomes were used to determine the in vitro apparent intrinsic clearance value (CLintapp) of buagafuran acquired using Then CLintapp was converted to in vivo intrinsic clearance (CLint).
Rat or human liver microsomal incubation (0.5 mg/mL) was carried out at 37°C in a mixture of 0.5 mL in 0.05 M Tris–HCl buffer (pH 7.4). Buagafuran (2 μM) was added to the incubation system. The addition of NADPH (1 mM) initiated the reaction, then the reaction was incubated for 0, 10, 20, 30, 45, and 60 min. The equal volume of acetonitrile containing the IS (10 ng/mL) was added to stop the reaction. The mixtures were centrifuged at 16000 g for 5 min and the supernatants were determined using LC-MS/MS method.
The natural log (In) of buagafuran concentration versus time was plotted and the slope of the best fit line of was determined by the data (k). This was converted into in vitro t1/2 where t1/2 = In 2/k. CLintapp was calculated by the following equation: […]
Where M is the microsomal protein concentration in the incubation. CLint by liver was calculated from equation 2:
(2) CLint=CLint(app)×mgmicrosome/gliver×liverweight(g)/bodyweight(kg)
Where a value of 45 mg of protein per gram of liver tissue was used for both rat and human, and a liver weight of 40 and 21 g per kg were applied to rat and human, respectively ([Hosea et al., 2009]). […]

[3] = Plasma PK in the rat after oral dosing (observed); assay type: in vivo, male Wistar rats; settings: male, Wistar; for AUC(0-t): read-out: AUC0-t Observed; for AUC(0-inf): read-out: AUC0-∞ Observed; for MRT inf: read-out: MRT(0-∞) Observed
Excerpt: Animal Care and Welfare Committee of Institute of Materia Medica, Chinese Academy of Medical Sciences approved all animal protocols (1 Xian nong tan Street, Xicheng District, Beijing, China; Permission Number: SYXK 2014-0023, Expiration: 06 Aug, 2019). All animal programs are in compliance with the Guide for the Care and Use of Laboratory Animals issued by Beijing Association on Laboratory Animal Care (BALAC). Buagafuran formulation of PVP was suspended in deionized water and was orally administered at 4 or 8 mg/kg to male Wistar rats (weighing 180–200 g). Brain samples treated with the dose of 4 mg/kg and blood samples of both treatments were collected over 3 h. Plasma samples were obtained by centrifugation, and brain tissues were homogenized in a threefold volume (w/v) of saline. Buagafuran concentrations in plasma and brain samples were quantitated by an LC-MS/MS method ([Yang et al., 2011]).
A volume of 200 μL plasma or tissue homogenate was mixed with 100 μL IS (10 ng/mL) followed by addition of 2 mL hexane. After vortexing for 2 min, the mixture was centrifuged for 5 min at 3000 g. The extracted solution was combined and evaporated to dryness at 25°C. The residues were reconstituted in 80 μL of 80% methanol. The chromatographic separation and mass spectrometric analysis was performed on a LC/TSQ Quantum Access mass spectrometer (Thermo Finnigan, San Jose, CA, United States). Ten microliter of the sample was injected onto an Agilent Eclipse Plus C18 analytical column (3.5 μm, 50 mm × 2.1 mm) and then buagafuran and IS were eluted with a gradient of acetonitrile (phase B) and water containing 0.1% v/v formic acid (phase A). The elution program was applied as follows: 50% B for 0–0.5 min, 50% B→97% B for 0.6–5.5 min, 50% B for 5.6–7.6 min. The outlet of the column was detected in positive ionization electrospray mode with selected reaction monitoring. The monitored transitions of buagafuran and IS were m/z 245→105 and 500→142, respectively. The retention time (RT) of buagafuran was 6.13 min. The linear range of the calibration curve was 0.5–800 ng/mL.
Pharmacokinetic parameters were determined with a non-compartmental model using WinNonlin v 6.0 (Pharsight Corporation, Mountain View, CA, United States). The area under the compound concentration versus time curve from time zero to the last time point (AUC0-t) and extrapolated to infinity (AUC0-∞) and the peak plasma concentration (Cmax) were calculated.

[4] = design: method as in Zhang, 1997; Li et al., 2001; Li, 2010; settings: rat liver microsomes, ref Zhang, 1997, Li et al., 2001, 2010; cited from earlier work

In the case of CCCCC1=CCC[C@@]2(C)CC[C@@H]3C[C@]12OC3(C)C [buagafuran], the “concentration dependence of plasma protein binding” value ([1]; rat plasma) is reported as “no evident concentration-dependent binding”, the fraction unbound at 60 h ([1]; rat, plasma, equilibrium dialysis, read-out: Fup rat (unbound fraction in rat plasma)) is reported as 0.031 and the CLhep predicted ([2]; from rat liver microsomes, well-stirred model) is reported as 1.68 L/h/kg. For the same compound, the microsomal CLint at 2 μM ([2]; pH 7.4, rat liver microsomes 0.5 mg/mL, 2 μM, read-out: in vitro CLintapp) was 33 µL/min/mg, the Cmax ([3]; oral 4 mg/kg) was 5.31 ng/mL and the AUC(0-t) ([3]; oral 4 mg/kg) was 0.00669 µg·h/mL. It also gave an AUC(0-inf) ([3]; oral 4 mg/kg) of 0.0114 µg·h/mL, an MRT inf ([3]; oral 4 mg/kg) of 212 min and a Tmax ([3]; oral 4 mg/kg, read-out: Tmax Observed) of 15 min. For the same compound, the Cmax ([3]; oral 8 mg/kg) was 10.6 ng/mL, the AUC(0-t) ([3]; oral 8 mg/kg) was 0.0142 µg·h/mL and the AUC(0-inf) ([3]; oral 8 mg/kg) was 0.0151 µg·h/mL. For the same compound, the MRT inf ([3]; oral 8 mg/kg) was 72.6 min, the Tmax ([3]; single oral dosing 4 and 8 mg/kg, read-out: time of peak plasma concentration (converted)) was 15 min and the extraction ratio [4] was “about 50%”.

Reference: PMC5641330, “Prediction of a Therapeutic Dose for Buagafuran, a Potent Anxiolytic Agent by Physiologically Based Pharmacokinetic/Pharmacodynamic Modeling Starting from Pharmacokinetics in Rats and Human” (Frontiers in Pharmacology, 2017)
